Assay results: ChEMBL document CHEMBL6115036, “Exploration of membrane-active cephalosporin derivatives as potent antibacterial agents against Staphylococcus aureus biofilms and persisters” (Eur J Med Chem, 2025)
The source made the active and inactive calls. The rule behind the calls is not given here.

What was measured:
[1] = Toxicity in Kunming mouse model of subcutaneous abscess infected with Staphylococcus aureus assessed as histopathological abnormalities in heart at 5 to 10 mg/kg, sc measured after 48 hrs by H and E staining based analysis; format: organism-based; conditions: in vivo, dose 5-10 mg/kg
[2] = Hemolytic activity in sheep red blood cells incubated for 1 hr; format: toxicity, cell-based, Ovis aries, Erythrocyte
Staphylococcus aureus [3] = test: Bactericidal activity against Staphylococcus aureus assessed as reduction in bacterial colony count at 4 to 8 times MIC incubated for 8 hrs by time kill assay; format: functional, organism-based
[4] = Toxicity in Kunming mouse model of subcutaneous abscess infected with Staphylococcus aureus assessed as histopathological abnormalities in liver at 5 to 10 mg/kg, sc measured after 48 hrs by H and E staining based analysis; format: organism-based; conditions: in vivo, dose 5-10 mg/kg
[5] = Toxicity in Kunming mouse model of subcutaneous abscess infected with Staphylococcus aureus assessed as histopathological abnormalities in lung at 5 to 10 mg/kg, sc measured after 48 hrs by H and E staining based analysis; format: organism-based; conditions: in vivo, dose 5-10 mg/kg
Staphylococcus aureus [6] = test: Induction of resistance development in drug-resistant Staphylococcus aureus at sub-MIC measured after 20 passages in presence of rifampicin; format: functional, organism-based
Staphylococcus aureus [7] = test: Induction of resistance development in drug-resistant Staphylococcus aureus at sub-MIC measured after 20 passages in presence of norfloxacin; format: functional, organism-based
Staphylococcus aureus [8] = test: Antibacterial activity against Staphylococcus aureus infected in Kunming mouse model of subcutaneous abscess assessed as reduction in bacterial load in skin tissue at 10 mg/kg, sc measured after 48 hrs relative to control; format: functional; parameters: scale not given: the % may be the effect or the level left
Staphylococcus aureus [9] = test: Inhibition of biofilm formation in Staphylococcus aureus assessed as reduction in number of live bacterial count at 16 times MIC incubated for 24 hrs; format: functional
[10] = Toxicity in Kunming mouse model of subcutaneous abscess infected with Staphylococcus aureus assessed as damage in lung at 5 to 10 mg/kg, sc measured after 48 hrs by H and E staining based analysis; format: organism-based; conditions: in vivo, dose 5-10 mg/kg
Staphylococcus aureus [11] = test: Induction of resistance development in drug-resistant Staphylococcus aureus assessed as fold increase in MIC of levofloxacin at sub-MIC measured after 20 passages relative to control; format: functional
Staphylococcus aureus [12] = test: Induction of resistance development in Staphylococcus aureus at sub-MIC measured after 20 passages; format: functional, organism-based
Staphylococcus aureus [13] = test: Inhibition of biofilm formation in Staphylococcus aureus assessed as decrease in bacterial count at 32 times MIC incubated for 24 hrs by CLSM analysis; format: functional, organism-based
Staphylococcus aureus [14] = test: Induction of intracellular ROS accumulation in Staphylococcus aureus at 1 to 4 times MIC incubated overnight by DCFH-DA dye based analysis; format: functional, organism-based
Staphylococcus aureus [15] = test: Induction of resistance development in drug-resistant Staphylococcus aureus at sub-MIC measured after 20 passages in presence of linezolid; format: functional, organism-based
[16] = Toxicity in Kunming mouse model of subcutaneous abscess infected with Staphylococcus aureus assessed as damage in liver at 5 to 10 mg/kg, sc measured after 48 hrs by H and E staining based analysis; format: organism-based; conditions: in vivo, dose 5-10 mg/kg
Staphylococcus aureus [17] = test: Bactericidal activity against Staphylococcus aureus measured for 3 to 6 hrs in presence of 50% sheep plasma; format: functional, organism-based; conditions: time 3-6 hrs
[18] = Toxicity in Kunming mouse model of subcutaneous abscess infected with Staphylococcus aureus assessed as damage in spleen at 5 to 10 mg/kg, sc measured after 48 hrs by H and E staining based analysis; format: organism-based; conditions: in vivo, dose 5-10 mg/kg
[19] = Cytotoxicity against human HeLa cells incubated for 24 hrs by CCK8 assay; format: toxicity, cell-based
[20] = system: Stenotrophomonas maltophilia; test: Antimicrobial activity against Stenotrophomonas maltophilia incubated for 16 to 18 hrs by broth dilution assay; format: functional; conditions: time 16-18 hrs
Staphylococcus aureus [21] = test: Antimicrobial activity against Staphylococcus aureus incubated for 16 to 18 hrs by broth dilution assay; format: functional; conditions: time 16-18 hrs
Escherichia coli = test: Antimicrobial activity against Escherichia coli incubated for 16 to 18 hrs by broth dilution assay; format: functional; conditions: time 16-18 hrs
Staphylococcus aureus [22] = test: Antibacterial activity against Staphylococcus aureus infected in Kunming mouse model of subcutaneous abscess assessed as decrease in inflammatory cell infiltration in skin tissue at 10 mg/kg, sc measured after 48 hrs by H and E staining based analysis; format: functional, organism-based
[23] = Toxicity in Kunming mouse model of subcutaneous abscess infected with Staphylococcus aureus assessed as damage in heart at 5 to 10 mg/kg, sc measured after 48 hrs by H and E staining based analysis; format: organism-based; conditions: in vivo, dose 5-10 mg/kg
Staphylococcus aureus [24] = test: Disruption of cell membrane in Staphylococcus aureus assessed as protein leakage at 32 ug/ml measured after 2 hrs by fluorescence based analysis; format: functional, organism-based; conditions: dose 32.0 µg/ml
Staphylococcus aureus [25] = test: Inhibition of metabolic activity in Staphylococcus aureus incubated for 6 hrs by Alamar blue assay; format: functional, organism-based
Staphylococcus aureus [26] = test: Induction of resistance development in drug-resistant Staphylococcus aureus at sub-MIC measured after 20 passages in presence of ciprofloxacin; format: functional, organism-based
[27] = Toxicity in Kunming mouse model of subcutaneous abscess infected with Staphylococcus aureus assessed as histopathological abnormalities in spleen at 5 to 10 mg/kg, sc measured after 48 hrs by H and E staining based analysis; format: organism-based; conditions: in vivo, dose 5-10 mg/kg
Enterococcus faecalis = test: Antimicrobial activity against Enterococcus faecalis incubated for 16 to 18 hrs by broth dilution assay; format: functional; conditions: time 16-18 hrs
Staphylococcus aureus [28] = test: Antibacterial activity against Staphylococcus aureus infected in Kunming mouse model of subcutaneous abscess assessed as decrease in neutrophil level in skin tissue at 5 mg/kg, sc measured after 48 hrs by H and E staining based analysis; format: functional, organism-based
Staphylococcus aureus [29] = test: Antibacterial activity against Staphylococcus aureus in presence of 50% FBS; format: functional, organism-based
[30] = Cytotoxicity against HUVEC cells incubated for 24 hrs by CCK8 assay; format: toxicity, cell-based; conditions: human
Staphylococcus aureus [31] = test: Disruption of cell membrane in Staphylococcus aureus assessed as nucleic acid leakage at 32 ug/ml measured after 2 hrs by fluorescence based analysis; format: functional, organism-based; conditions: dose 32.0 µg/ml
Staphylococcus aureus [32] = test: Antibacterial activity against Staphylococcus aureus assessed as effect on quiescent cells at 100 to 200 times MIC incubated for 24 hrs; format: functional, organism-based
Staphylococcus aureus [33] = test: Antibacterial activity against Staphylococcus aureus infected in Kunming mouse model of subcutaneous abscess assessed as decrease in inflammation in skin tissue at 5 mg/kg, sc measured after 48 hrs by H and E staining based analysis; format: functional, organism-based
Staphylococcus aureus [34] = test: Induction of resistance development in drug-resistant Staphylococcus aureus at sub-MIC measured after 20 passages in presence of vancomycin; format: functional, organism-based
Staphylococcus aureus [35] = test: Induction of resistance development in drug-resistant Staphylococcus aureus at sub-MIC measured after 20 passages in presence of levofloxacin; format: functional, organism-based
Staphylococcus aureus [36] = test: Induction of resistance development in drug-resistant Staphylococcus aureus at sub-MIC measured after 20 passages in presence of cefuroxime sodium; format: functional, organism-based
[37] = Toxicity in Kunming mouse model of subcutaneous abscess infected with Staphylococcus aureus assessed as damage in kidney at 5 to 10 mg/kg, sc measured after 48 hrs by H and E staining based analysis; format: organism-based; conditions: in vivo, dose 5-10 mg/kg
Staphylococcus aureus [38] = test: Antibacterial activity against rifampicin-induced persistant Staphylococcus aureus assessed as decrease in CFU at 200 times MIC measured for 10 hrs; format: functional, organism-based
Staphylococcus aureus [39] = test: Antibacterial activity against Staphylococcus aureus in presence of 50% sheep plasma; format: functional, organism-based
Staphylococcus aureus [40] = test: Induction of resistance development in drug-resistant Staphylococcus aureus at sub-MIC measured after 20 passages in presence of ampicillin sodium; format: functional, organism-based
Staphylococcus aureus [41] = test: Antibacterial activity against Staphylococcus aureus infected in Kunming mouse model of subcutaneous abscess assessed as surviving bacteria in skin tissue at 10 mg/kg, sc measured after 48 hrs relative to control; format: functional
[42] = Toxicity in Kunming mouse model of subcutaneous abscess infected with Staphylococcus aureus assessed as histopathological abnormalities in kidney at 5 to 10 mg/kg, sc measured after 48 hrs by H and E staining based analysis; format: organism-based; conditions: in vivo, dose 5-10 mg/kg
Staphylococcus aureus [43] = test: Antibacterial activity against Staphylococcus aureus infected in Kunming mouse model of subcutaneous abscess assessed as reduction in number of bacteria in skin tissue at 5 to 10 mg/kg, sc measured after 48 hrs; format: functional, organism-based; conditions: dose 5-10 mg/kg
Staphylococcus aureus [44] = test: Induction of resistance development in drug-resistant Staphylococcus aureus assessed as fold increase in MIC of cefuroxime sodium at sub-MIC measured after 20 passages relative to control; format: functional
Staphylococcus aureus [45] = test: Induction of resistance development in Staphylococcus aureus assessed as fold increase in MIC at sub-MIC measured after 20 passages relative to control; format: functional
Staphylococcus aureus [46] = test: Induction of resistance development in drug-resistant Staphylococcus aureus assessed as fold increase in MIC of ampicillin sodium at sub-MIC measured after 20 passages relative to control; format: functional
Staphylococcus aureus [47] = test: Induction of resistance development in drug-resistant Staphylococcus aureus assessed as fold increase in MIC of rifampicin at sub-MIC measured after 20 passages relative to control; format: functional

## CCCCCCCCCC[n+]1ccc(-c2cc[n+](CC3=C(C(=O)[O-])N4C(=O)[C@@H](NC(=O)Cc5ccccc5)[C@H]4SC3)cc2)cc1.O=C([O-])C(F)(F)F
[1]
  Activity: Non-toxic
[2]
  HC50 at 1 h: > 1280 µg/mL
Staphylococcus aureus [3]
  Activity: Active
[4]
  Activity: Non-toxic
[5]
  Activity: Non-toxic
Staphylococcus aureus [6]
  Activity: inactive
Staphylococcus aureus [7]
  Activity: inactive
Staphylococcus aureus [8]
  Activity: 99.98%
Staphylococcus aureus [9]
  Activity: ~1 10^3CFU/ml
[10]
  Activity: Non-toxic
Staphylococcus aureus [11]
  fold change (FC): 8
Staphylococcus aureus [12]
  Activity: inactive
Staphylococcus aureus [13]
  inhibition: inactive
Staphylococcus aureus [14]
  Activity: inactive
Staphylococcus aureus [15]
  Activity: inactive
[16]
  Activity: Non-toxic
Staphylococcus aureus [17]
  Activity: Active
[18]
  Activity: Non-toxic
[19]
  CC50 at 24 h: 26.9 µg/mL
[20]
  MIC: 128 µg/mL
Staphylococcus aureus [21]
  MIC: 0.063 µg/mL
Escherichia coli
  MIC: 128 µg/mL
Staphylococcus aureus [22]
  Activity: Active; Compound Activity On Skin Was Similar To Healthy Mouse
[23]
  Activity: Non-toxic
Staphylococcus aureus [24]
  Activity: inactive
Staphylococcus aureus [25]
  inhibition: Dose-dependent-effect
Staphylococcus aureus [26]
  Activity: inactive
[27]
  Activity: Non-toxic
Enterococcus faecalis
  MIC: 4 µg/mL
Staphylococcus aureus [28]
  Activity: Active
Staphylococcus aureus [29]
  Activity: Active; Mic Value Of Compound In Serum Was Equal To Mic In Mhb Medium
[30]
  CC50 at 24 h: > 64 µg/mL
Staphylococcus aureus [31]
  Activity: inactive
Staphylococcus aureus [32]
  Activity: inactive
Staphylococcus aureus [33]
  Activity: Active
Staphylococcus aureus [34]
  Activity: inactive
Staphylococcus aureus [35]
  Activity: inactive
Staphylococcus aureus [36]
  Activity: inactive
[37]
  Activity: Non-toxic
Staphylococcus aureus [38]
  Activity: inactive
Staphylococcus aureus [39]
  Activity: Active; Mic Value Of Compound In Plasma Was Equal To Mic In Mhb Medium
Staphylococcus aureus [40]
  Activity: inactive
Staphylococcus aureus [41]
  Activity: 0.02%
[42]
  Activity: Non-toxic
Staphylococcus aureus [43]
  Activity: Active

## O=C(Cc1ccccc1)N[C@@H]1C(=O)N2C(C(=O)O)=C(C[n+]3ccccc3)CS[C@H]12.[I-]
[2]
  HC50 at 1 h: > 1280 µg/mL
Staphylococcus aureus [44]
  fold change (FC): >128
Staphylococcus aureus [45]
  fold change (FC): 64
[20]
  MIC: 64 µg/mL
Staphylococcus aureus [21]
  MIC: 0.063 µg/mL
Escherichia coli
  MIC: 32 µg/mL
Enterococcus faecalis
  MIC: 16 µg/mL
Staphylococcus aureus [46]
  fold change (FC): 64
Staphylococcus aureus [47]
  fold change (FC): 8
